Results on one compound are retold here after PMC9613470, “Diverse MarR bacterial regulators of auxin catabolism in the plant microbiome” (Nature Microbiology, 2022).

The experiment has as its target T1, Enterobacter soli LF7 MarR_Es (Enterobacter soli, UniProt A0AAW8H3I9, A146S).
T1 sequence (A0AAW8H3I9 1-157 A146S): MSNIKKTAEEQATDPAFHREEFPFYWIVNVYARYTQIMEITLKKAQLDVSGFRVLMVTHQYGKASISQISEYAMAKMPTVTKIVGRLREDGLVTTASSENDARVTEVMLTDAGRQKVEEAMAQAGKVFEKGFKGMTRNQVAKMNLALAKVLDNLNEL
Description: ITC IAA binding to MarR_Es. As to conditions: 25 °C, IacR, read-out: KD1.
Description: All ITC measurements were performed at 25 °C using an Auto-ITC200 microcalorimeter (MicroCal/GE Healthcare). The buffer employed was 20 mM HEPES, pH 7.4, 50 mM NaCl and 0.5% dimethly sulfoxide (DMSO) for protein/ligand binding and 20 mM HEPES, pH 7.4 and 300 mM NaCl for DNA/protein binding experiments. For ligand binding experiments, the calorimetry cell (volume 200 ml) was loaded with MarR wild-type, mutant or homologue protein at a concentration of 50 μM. The syringe was loaded with a ligand concentration of 0.5 or 2 mM. […] A typical injection protocol included a single 0.2 μl first injection followed by 20 1.5 μl injections of the syringe sample into the calorimetry cell. The spacing between injections was kept at 180 s and the reference power at 8 μcal s^−1. The data were analysed using Origin for ITC version 7.0 software supplied by the manufacturer and fit well to a one-site binding model. Two independent ITC measurements were performed for each condition.

With `O=C(O)Cc1c[nH]c2ccccc12` [IAA, indole-3-acetic acid], the Kd turned out to be 2910 ± 96 nM.
